In the assay the target is T1, c-kit (Homo sapiens, UniProt P10721).
T1 construct: human Mo7e cells which endogenously express c-kit; endogenous in cells; host or cells: human Mo7e cells (SCF-dependent promegakaryocytic leukemia line)
Description: Mo7e cell proliferation assay (SCF dependent proliferation). Format: cell-based. Conditions: human Mo7e cells stimulated with human recombinant SCF, 48 h, CellTiter Glo, 1% FBS (footnote). As to the method: Compounds of Formula (I) and Formula (II) provided herein were assayed to measure their capacity to inhibit c-kit and PDGFR kinases using the appropriate assay described below: c-Kit inhibition was evaluated using the Mo7e cell proliferation assay, and PDGFR inhibition was evaluated using the Rat A10 cell proliferation assay and the Human TGHA-VSMC cell proliferation assay.
The compounds of Table 1 and Table 2 were tested for inhibition of SCF dependent proliferation using human Mo7e cells which endogenously express c-kit in a 384 well format. […] After 48 hours of incubation at 37° C., cell viability was measured by adding 25 uL of CellTiter Glo (Promega) to the cells and the luminescence was measured by a CLIPR CCD camera (Molecular Devices).
The IC50 value is given as that concentration of the test compound in question that provoke a response halfway between the baseline and maximum responses.
For orientation: In ATP-based viability assays light output follows the ATP content of the culture.

T1 sequence (P10721 26-976): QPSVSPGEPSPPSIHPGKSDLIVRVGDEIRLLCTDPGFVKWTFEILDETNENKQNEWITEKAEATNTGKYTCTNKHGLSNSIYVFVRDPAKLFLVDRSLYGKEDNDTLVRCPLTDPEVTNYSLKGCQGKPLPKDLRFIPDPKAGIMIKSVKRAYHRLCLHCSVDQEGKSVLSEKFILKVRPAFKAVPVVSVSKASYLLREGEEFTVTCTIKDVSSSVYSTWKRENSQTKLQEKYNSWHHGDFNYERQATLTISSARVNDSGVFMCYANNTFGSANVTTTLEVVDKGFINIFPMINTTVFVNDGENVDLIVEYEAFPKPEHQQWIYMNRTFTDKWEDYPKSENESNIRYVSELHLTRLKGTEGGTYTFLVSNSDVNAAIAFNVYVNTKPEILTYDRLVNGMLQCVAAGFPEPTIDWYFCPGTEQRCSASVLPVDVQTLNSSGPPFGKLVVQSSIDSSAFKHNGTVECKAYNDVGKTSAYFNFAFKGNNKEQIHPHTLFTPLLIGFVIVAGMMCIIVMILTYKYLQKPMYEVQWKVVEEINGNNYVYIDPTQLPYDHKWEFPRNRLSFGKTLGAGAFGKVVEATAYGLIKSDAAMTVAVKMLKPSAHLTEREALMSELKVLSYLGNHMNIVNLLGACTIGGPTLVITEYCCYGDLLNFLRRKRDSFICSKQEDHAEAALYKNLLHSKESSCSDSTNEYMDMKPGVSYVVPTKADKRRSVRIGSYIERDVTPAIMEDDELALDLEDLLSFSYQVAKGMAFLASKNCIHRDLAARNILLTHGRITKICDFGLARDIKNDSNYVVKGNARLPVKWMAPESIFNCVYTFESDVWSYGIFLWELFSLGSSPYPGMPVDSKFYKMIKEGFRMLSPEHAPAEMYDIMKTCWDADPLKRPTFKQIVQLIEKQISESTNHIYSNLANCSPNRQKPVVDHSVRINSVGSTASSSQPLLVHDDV

In general, IC50 refers to the concentration at which inhibition is half-maximal. On to `Cc1ccn2c(C(=O)Nc3cc(-c4noc(CCC(C)(O)C(F)(F)F)n4)ccc3C)cnc2c1` (stereo not drawn) [F67, 7-methyl-N-(2-methyl-5-(5-(4,4,4-trifluoro-3-hydroxy-3-methylbutyl)-1,2,4-oxadiazol-3-yl)phenyl)imidazo[1,2-a]pyridine-3-carboxamide], for which the IC50 (Table 1) stood at 16 nM.

As to `Cc1ccc(-c2noc(C(C)C)n2)cc1NC(=O)c1cnc2ccccn12` [F189], the concentration for half-maximal inhibition (IC50) (Table 2) was 122 nM.

Take `Cc1nc(-c2ccc(C)c(NC(=O)c3cnc4ccc(-c5cscn5)cn34)c2)no1` [F47]: the IC50 (Table 1) stood at 50 nM.

Take `[2H]c1c([2H])c([2H])n2c(C(=O)Nc3cc(-c4noc(CC=C(C)C)n4)ccc3C)cnc2c1[2H]` [F52]: for the setting “Table 1”, the half-maximal inhibitory concentration (IC50) worked out at 16 nM.

As for `Cc1ccc(-c2noc(CNC(=O)N(C)C)n2)cc1NC(=O)c1cnc2ccccn12` [F164], the IC50 (Table 2) came to 965 nM.

As to `COC(=O)NCc1nc(-c2ccc(C)c(NC(=O)c3cnc4cc(C(F)(F)F)ccn34)c2)no1` [F170], the IC50 (Table 2) came out at 462 nM.

Regarding `Cc1ccn2c(C(=O)Nc3cc(-c4noc(C[C@@H](O)C(F)(F)F)n4)ccc3C)cnc2c1` [F99], under “Table 1”, the IC50 stood at 45 nM.

As for `Cc1ccc2ncc(C(=O)Nc3cc(-c4noc(CCC(C)(O)C(F)(F)F)n4)ccc3C)n2c1` (stereo not drawn) [F72], for the setting “Table 1”, the IC50 stood at 35 nM.

Turning to `Cc1ccn2c(C(=O)Nc3cc(-c4noc(CCC(C)(C)O)n4)ccc3C)cnc2c1` [F50, N-(5-(5-(3-hydroxy-3-methylbutyl)-1,2,4-oxadiazol-3-yl)-2-methylphenyl)-7-methylimidazo[1,2-a]pyridine-3-carboxamide], the IC50 (Table 1) was found to be 52 nM.

`Cc1ccc(-c2noc(CCNC(=O)OC(C)(C)C)n2)cc1NC(=O)c1cnc2ccccn12` [F2]: the IC50 (Table 1) was 63 nM.

In the case of `Cc1nc(-c2ccc(C)c(NC(=O)c3cnc4ccc(-c5sc(C(=O)O)nc5C)cn34)c2)no1` [F247], under “Table 2”, the IC50 worked out at 341 nM.

For the molecule `Cc1ccc(-c2noc(CC(=O)OC(C)(C)C)n2)cc1NC(=O)c1cnc2ccccn12` [F27, tert-butyl 2-(3-(3-(imidazo[1,2-a]pyridine-3-carboxamido)-4-methylphenyl)-1,2,4-oxadiazol-5-yl)acetate], the IC50 (Table 1) stood at 22 nM.

Consider `CCOCCc1nc(-c2ccc(C)c(NC(=O)c3cnc4ccccn34)c2)no1` [F10], for which the IC50 (Table 1) was determined as 42 nM.

In the case of `CCOC(=O)NCCc1nc(-c2ccc(C)c(NC(=O)c3cnc4ccccn34)c2)no1` [F120], the half-maximal inhibitory concentration (IC50) (Table 2) worked out at 248 nM.

On to `COC(=O)N[C@H](C)c1nc(-c2ccc(C)c(NC(=O)c3cnc4ccccn34)c2)no1` [F137], for which, for the setting “Table 2”, the concentration for half-maximal inhibition (IC50) was 193 nM.

Regarding `Cc1ccc(-c2noc(CCC(N)=O)n2)cc1NC(=O)c1cnc2ccccn12` [F117, N-(5-(5-(3-amino-3-oxopropyl)-1,2,4-oxadiazol-3-yl)-2-methylphenyl)imidazo[1,2-a]pyridine-3-carboxamide], the IC50 (Table 2) worked out at 803 nM.

For the molecule `Cc1nc(-c2ccc(C)c(NC(=O)c3cnc4ccc(-c5sc(C(=O)NCCO)nc5C)cn34)c2)no1` [F263, N-(2-hydroxyethyl)-4-methyl-5-(3-((2-methyl-5-(5-methyl-1,2,4-oxadiazol-3-yl)phenyl)carbamoyl)imidazo[1,2-a]pyridin-6-yl)thiazole-2-carboxamide], the IC50 (Table 1) was determined as 58 nM.

In the case of `Cc1nc(C)c(-c2ccc3ncc(C(=O)Nc4cc(-c5noc(COCC(F)(F)F)n5)ccc4C)n3c2)s1` [F91, 6-(2,4-dimethylthiazol-5-yl)-N-(2-methyl-5-(5-((2,2,2-trifluoroethoxy)methyl)-1,2,4-oxadiazol-3-yl)phenyl)imidazo[1,2-a]pyridine-3-carboxamide], the half-maximal inhibitory concentration (IC50) (Table 1) is 6 nM.

For `Cc1nc(-c2ccc(C)c(NC(=O)c3cnc4ccc(-c5c(C)nn(CCO)c5C)cn34)c2)no1` [F255, 6-(1-(2-hydroxyethyl)-3,5-dimethyl-1H-pyrazol-4-yl)-N-(2-methyl-5-(5-methyl-1,2,4-oxadiazol-3-yl)phenyl)imidazo[1,2-a]pyridine-3-carboxamide], the IC50 (Table 1) came to 16 nM.

With `Cc1ccc(-c2noc(CNC(=O)C(C)(C)O)n2)cc1NC(=O)c1cnc2ccccn12` [F134], the IC50 (Table 2) was determined as 173 nM.

In the case of `Cc1ccc(-c2noc(CCC(C)(C)O)n2)cc1NC(=O)c1cnc2ccc(COCC(F)(F)F)cn12` [F195], the IC50 (Table 2) turned out to be 150 nM.

In the case of `Cc1ccc(-c2noc(CCS(N)(=O)=O)n2)cc1NC(=O)c1cnc2ccccn12` [F116], the IC50 (Table 2) is 735 nM.

With `COC(=O)NC(C)(C)c1nc(-c2ccc(C)c(NC(=O)c3cnc4ccccn34)c2)no1` [F148], for the setting “Table 2”, the IC50 was found to be 208 nM.

With `Cc1ccn2c(C(=O)Nc3cc(-c4noc(COCC(F)(F)F)n4)ccc3C)cnc2c1` [F77], for the setting “Table 1”, the IC50 worked out at 10 nM.

Regarding `Cc1ccn2c(C(=O)Nc3cc(-c4noc(CC[C@@](C)(OC(=O)[C@@H](N)C(C)C)C(F)(F)F)n4)ccc3C)cnc2c1` [F251], for the setting “Table 2”, the IC50 was determined as 142 nM.

As for `Cc1ccc(-c2noc(COCCOC(C)(C)C)n2)cc1NC(=O)c1cnc2ccccn12` [F34], the IC50 (Table 1) was found to be 93 nM.

Regarding `Cc1ccc(-c2noc(CN(C)S(C)(=O)=O)n2)cc1NC(=O)c1cnc2ccccn12` [F144, N-(2-methyl-5-(5-((N-methylmethylsulfonamido)methyl)-1,2,4-oxadiazol-3-yl)phenyl)imidazo[1,2-a]pyridine-3-carboxamide], the IC50 (Table 2) was found to be 156 nM.

`Cc1ccc(-c2noc(CNS(C)(=O)=O)n2)cc1NC(=O)c1cnc2ccccn12` [F129]: the IC50 (Table 2) came to 124 nM.

On to `CC(=O)OCc1nc(-c2ccc(C)c(NC(=O)c3cnc4ccccn34)c2)no1` [F172], for which the IC50 (Table 2) came out at 156 nM.

Turning to `Cc1ccc(-c2noc(CNC(=O)CC(F)(F)F)n2)cc1NC(=O)c1cnc2ccccn12` [F35], the IC50 (Table 1) is 43 nM.

Regarding `Cc1ccc(-c2noc(C(C)OCC(F)(F)F)n2)cc1NC(=O)c1cnc2ccccn12` (stereo not drawn) [F266], the IC50 (Table 1) is 11 nM.

Regarding `Cc1ccn2c(C(=O)Nc3cc(-c4noc(CCC(C)(C)OC(=O)CN)n4)ccc3C)cnc2c1` [F249], under “Table 2”, the IC50 is 108 nM.

On to `Cc1ccc(-c2noc(CCC(C)O)n2)cc1NC(=O)c1cnc2ccccn12` (stereo not drawn) [F9, N-(5-(5-(3-hydroxybutyl)-1,2,4-oxadiazol-3-yl)-2-methylphenyl)imidazo[1,2-a]pyridine-3-carboxamide], for which, for the setting “Table 1”, the IC50 was found to be 87 nM.

As for `COCc1nc(-c2ccc(C)c(NC(=O)c3cnc4ccccn34)c2)no1` [F130], the IC50 (Table 2) amounted to 142 nM.

Regarding `Cc1ccc(-c2noc(CCOCC(F)(F)F)n2)cc1NC(=O)c1cnc2ccccn12` [F28], the IC50 (Table 1) came to 7 nM.

With `COCCCN(Cc1nc(-c2ccc(C)c(NC(=O)c3cnc4ccccn34)c2)no1)C(=O)C(F)(F)F` [F151], the IC50 (Table 2) was determined as 134 nM.

Consider `Cc1ccc(-c2noc(C(F)F)n2)cc1NC(=O)c1cnc2ccccn12` [F160], for which the IC50 (Table 2) was found to be 480 nM.

For `Cc1nc(-c2ccc(C)c(NC(=O)c3cnc4ccc(-c5c(C)noc5C)cn34)c2)no1` [F49], the IC50 (Table 1) was 53 nM.

Take `CC(=O)NCCc1nc(-c2ccc(C)c(NC(=O)c3cnc4ccccn34)c2)no1` [F113]: under “Table 2”, the IC50 was determined as 689 nM.

On to `Cc1ccc(-c2noc(C(C)(C)NS(C)(=O)=O)n2)cc1NC(=O)c1cnc2ccccn12` [F147], for which the IC50 (Table 2) was 457 nM.

On to `Cc1ccn2c(C(=O)Nc3cc(-c4noc(CCC(C)(OP(=O)(O)O)C(F)(F)F)n4)ccc3C)cnc2c1` (stereo in doubt) [F270, (R)-1,1,1-trifluoro-2-methyl-4-(3-(4-methyl-3-(7-methylimidazo[1,2-a]pyridine-3-carboxamido)phenyl)-1,2,4-oxadiazol-5-yl)butan-2-yl dihydrogen phosphate], for which, where the note is “Table 1”, the IC50 came to 25 nM.

As for `Cc1ccc(-c2noc([C@@H](C)NS(C)(=O)=O)n2)cc1NC(=O)c1cnc2ccccn12` [F18], the IC50 (Table 1) was found to be 98 nM.

Turning to `Cc1ccc2ncc(C(=O)Nc3cc(-c4noc(NCC(C)(C)O)n4)ccc3C)n2c1` [F193], the IC50 (Table 2) amounted to 166 nM.

As to `Cc1ccc(-c2noc(CC[C@](C)(O)C(F)(F)F)n2)cc1NC(=O)c1cnc2ccc(F)cn12` [F85], the concentration for half-maximal inhibition (IC50) (Table 1) is 38 nM.

On to `[2H]C([2H])([2H])c1ccn2c(C(=O)Nc3cc(-c4noc(COCC(F)(F)F)n4)ccc3C)cnc2c1` [F78, 7-methyl-d3-N-(2-methyl-5-(5-((2,2,2-trifluoroethoxy)methyl)-1,2,4-oxadiazol-3-yl)phenyl)imidazo[1,2-a]pyridine-3-carboxamide], for which the IC50 (Table 1) stood at 9 nM.

Consider `Cc1nc(-c2ccc(C)c(NC(=O)c3cnc4ccc(-c5sc(C(=O)NCCN6CCN(C)CC6)nc5C)cn34)c2)no1` [F248], for which the IC50 (Table 2) stood at 140 nM.

On to `Cc1ccc(-c2noc(CN(C)C(=O)OC(C)(C)C)n2)cc1NC(=O)c1cnc2ccccn12` [F19, tert-butyl (3-(3-(imidazo[1,2-a]pyridine-3-carboxamido)-4-methylphenyl)-1,2,4-oxadiazol-5-yl)methyl(methyl)carbamate], for which the IC50 (Table 1) was 57 nM.

For the molecule `CCCC(C)c1nc(-c2ccc(C)c(NC(=O)c3cnc4ccc(C)cn34)c2)no1` (stereo not drawn) [F59], the concentration for half-maximal inhibition (IC50) (Table 1) was 22 nM.

Regarding `COc1ccc2ncc(C(=O)Nc3cc(-c4noc(CCC(C)(C)O)n4)ccc3C)n2c1` [F56], the 50% inhibitory concentration (IC50) (Table 1) amounted to 70 nM.

On to `COCCNc1nc(-c2ccc(C)c(NC(=O)c3cnc4cc(C)ccn34)c2)no1` [F197], for which the IC50 (Table 2) amounted to 110 nM.

Take `Cc1nc(-c2ccc(C)c(NC(=O)c3cnc4ccc(CCN5CCNCC5)cn34)c2)no1` [F211]: the IC50 (Table 2) turned out to be 571 nM.

With `CCN(Cc1nc(-c2ccc(C)c(NC(=O)c3cnc4ccccn34)c2)no1)C(=O)OC(C)(C)C` [F21], where the note is “Table 1”, the IC50 came to 55 nM.

As for `Cc1nc(-c2ccc(C)c(NC(=O)c3cnc4ccc(-c5scnc5C)cn34)c2)no1` [F97], where the note is “Table 1”, the IC50 is 38 nM.

Regarding `Cc1nc(-c2ccc(C)c(NC(=O)c3cnc4ccc(-c5cnccn5)cn34)c2)no1` [F201], for the setting “Table 2”, the IC50 turned out to be 125 nM.

The values above are taken from patent publication US20150011508A1, “COMPOUNDS AND COMPOSITIONS AS C-KIT KINASE INHIBITORS” (priority 2011, published 2015).
